What was measured:
PC-3 [1] = experiment: Antiproliferative activity against human PC-3 cells assessed as inhibition of cell growth incubated for 72 hrs by MTT assay; type: functional, cell-based; conditions: PC-3, 72 h
MCF7 = experiment: Antiproliferative activity against human MCF7 cells assessed as inhibition of cell growth incubated for 72 hrs by MTT assay; type: functional, cell-based; conditions: MCF7, 72 h
HepG2 = experiment: Antiproliferative activity against human HepG2 cells assessed as inhibition of cell growth incubated for 72 hrs by MTT assay; type: functional, cell-based; conditions: HepG2, 72 h
MGC-803 = experiment: Antiproliferative activity against human MGC-803 cells assessed as inhibition of cell growth incubated for 72 hrs by MTT assay; type: functional, cell-based; conditions: MGC-803, 72 h
PC-3 [2] = experiment: Inhibition of colony formation in human PC-3 cells incubated for 7 days by crystal violet staining based analysis; type: functional, cell-based; conditions: dose 2-8 µM, time 7.0 day, DDE = dose-dependent effect
PC-3 [3] = experiment: Induction of cell cycle arrest in human PC-3 cells assessed as accumulation of cells in G2/M phase at 8 uM incubated for 24 hrs by RNase/PI staining based flow cytometry analysis (reference value: 22.17%); type: functional
[4] = Cytotoxicity against human WPMY-1 cells assessed as inhibition of cell growth incubated for 72 hrs by MTT assay; type: toxicity, cell-based
[5] = Selectivity ratio of IC50 for cytotoxicity against human WPMY-1 cells to IC50 for antiproliferative activity against human PC-3 cells; type: toxicity, cell-based; conditions: WPMY-1 cells and PC-3 cells, read-out: Ratio IC50
[6] = Toxicity in wild type KM mouse assessed as animal survival at 2 g/Kg, IG measured for 2 weeks; conditions: in vivo, po, 2000 mg/kg, 336 h
[7] = Toxicity in wild type KM mouse assessed as behavioral abnormalities at 2 g/Kg, IG measured for 2 weeks; conditions: in vivo, po, 2000 mg/kg, 336 h
[8] = Toxicity in wild type KM mouse assessed as change in heart morphology at 2 g/Kg, IG measured for 2 weeks by H and E staining based microscopic analysis; type: tissue-based; conditions: in vivo, po, 2000 mg/kg, 336 h
[9] = Toxicity in wild type KM mouse assessed as change in liver morphology at 2 g/Kg, IG measured for 2 weeks by H and E staining based microscopic analysis; type: tissue-based; conditions: in vivo, po, 2000 mg/kg, 336 h
[10] = Toxicity in wild type KM mouse assessed as change in spleen morphology at 2 g/Kg, IG measured for 2 weeks by H and E staining based microscopic analysis; conditions: in vivo, po, 2000 mg/kg, 336 h
[11] = Toxicity in wild type KM mouse assessed as change in lung morphology at 2 g/Kg, IG measured for 2 weeks by H and E staining based microscopic analysis; conditions: in vivo, po, 2000 mg/kg, 336 h
[12] = Toxicity in wild type KM mouse assessed as change in kidney morphology at 2 g/Kg, IG measured for 2 weeks by H and E staining based microscopic analysis; conditions: in vivo, po, 2000 mg/kg, 336 h
[13] = Toxicity in wild type KM mouse assessed as change in prostate morphology at 2 g/Kg, IG measured for 2 weeks by H and E staining based microscopic analysis; conditions: in vivo, po, 2000 mg/kg, 336 h

| SMILES | IC50 (PC-3 [1]) [µM] | IC50 (MCF7) [µM] | IC50 (HepG2) [µM] | IC50 (MGC-803) [µM] | further results |
| --- | --- | --- | --- | --- | --- |
| CC(C)n1ncc2c(C(=O)NCc3cn(-c4ccccc4)nn3)cccc21 | 25.9 | > 40 | > 40 | > 40 | – |
| Cc1ccc(-n2cc(CNC(=O)c3cccc4c3cnn4C(C)C)nn2)cc1 | 39 | > 40 | > 40 | > 40 | – |
| Cc1ccc(-n2cc(CNC(=O)c3cccc4c3cnn4C(C)C)nn2)cc1C | 23.4 | > 40 | > 40 | > 40 | – |
| CC(C)n1ncc2c(C(=O)NCc3cn(-c4ccc(I)cc4)nn3)cccc21 | > 40 | > 40 | > 40 | > 40 | – |
| CC(C)n1ncc2c(C(=O)NC3CCCC3)cccc21 | 19.4 | > 40 | > 40 | > 40 | – |
| CC(C)n1ncc2c(C(=O)NCc3cn(-c4cccc(Br)c4)nn3)cccc21 | 33.7 | > 40 | > 40 | > 40 | – |
| CC(C)n1ncc2c(C(=O)NCc3cn(-c4ccc(F)cc4)nn3)cccc21 | > 40 | > 40 | > 40 | > 40 | – |
| CC(C)n1ncc2c(C(=O)NCc3cn(Cc4ccc(C(C)(C)C)cc4)nn3)cccc21 | 8.89 | > 40 | > 40 | > 40 | – |
| CC(C)n1ncc2c(C(=O)NCCN3CCCC3)cccc21 | > 40 | > 40 | > 40 | > 40 | – |
| CC(C)n1ncc2c(C(=O)NCc3cn(Cc4ccc(C(F)(F)F)cc4)nn3)cccc21 | 23.9 | > 40 | > 40 | > 40 | – |
| CC(C)n1ncc2c(C(=O)NCc3cn(Cc4ccccc4)nn3)cccc21 | 4.42 | 9.17 | 13.7 | 14.3 | inhibition (PC-3 [2]): Dde; Activity (PC-3 [3]): 72.25%; IC50 at 72 h [4]: 20.3 µM; selectivity ratio [5]: 4.42; Activity [6]: Non-Toxic; Activity [7]: Non-Toxic; Activity [8]: Non-Toxic; Activity [9]: Non-Toxic; Activity [10]: Non-Toxic; Activity [11]: Non-Toxic; Activity [12]: Non-Toxic; Activity [13]: Non-Toxic |
| CC(C)n1ncc2c(C(=O)NCc3cn(-c4ccccc4F)nn3)cccc21 | > 40 | > 40 | > 40 | > 40 | – |
| CC(C)n1ncc2c(C(=O)NCCN(C)C)cccc21 | > 40 | > 40 | > 40 | > 40 | – |
| O=c1[nH]cc(F)c(=O)[nH]1 [FLUOROURACIL] | – | 15.1 | 11.7 | – | – |
| Cc1cccc(-n2cc(CNC(=O)c3cccc4c3cnn4C(C)C)nn2)c1 | 32.3 | > 40 | > 40 | > 40 | – |
| Cc1ccccc1-n1cc(CNC(=O)c2cccc3c2cnn3C(C)C)nn1 | 19.2 | > 40 | > 40 | > 40 | – |
| CC(C)n1ncc2c(C(=O)Nc3ccccc3)cccc21 | 11.9 | 19.7 | 23.7 | 38.5 | – |
| COc1ccc(-n2cc(CNC(=O)c3cccc4c3cnn4C(C)C)nn2)cc1 | 34.3 | > 40 | > 40 | > 40 | – |
| CC(C)n1ncc2c(C(=O)NCc3cn(-c4ccc(C(F)(F)F)cc4)nn3)cccc21 | 38.6 | > 40 | > 40 | > 40 | – |
| CC(C)n1ncc2c(C(=O)NCCN3CCN(C)CC3)cccc21 | > 40 | > 40 | > 40 | > 40 | – |
| CC(C)n1ncc2c(C(=O)NCc3cn(-c4ccc([N+](=O)[O-])cc4)nn3)cccc21 | > 40 | > 40 | > 40 | > 40 | – |
| CCc1ccc(-n2cc(CNC(=O)c3cccc4c3cnn4C(C)C)nn2)cc1 | 26.6 | > 40 | > 40 | > 40 | – |
| CC(C)n1ncc2c(C(=O)NCc3cn(Cc4ccc(C#N)cc4)nn3)cccc21 | 18.2 | > 40 | > 40 | 39.6 | – |
| COc1ccc(Cn2cc(CNC(=O)c3cccc4c3cnn4C(C)C)nn2)cc1 | 34 | > 40 | > 40 | > 40 | – |
| CC(C)n1ncc2c(C(=O)NCc3ccccc3)cccc21 | 15.2 | > 40 | > 40 | > 40 | – |
| CC(C)n1ncc2c(C(=O)NCCN3CCCCC3)cccc21 | > 40 | > 40 | > 40 | > 40 | – |
| Cc1ccc(-n2cc(CNC(=O)c3cccc4c3cnn4C(C)C)nn2)c(C)c1 | 10.6 | > 40 | > 40 | > 40 | – |
| CC(C)n1ncc2c(C(=O)Nc3cccnc3)cccc21 | > 40 | > 40 | > 40 | > 40 | – |
| CC(C)n1ncc2c(C(=O)NCc3cn(-c4cccc(F)c4)nn3)cccc21 | 36.1 | > 40 | > 40 | > 40 | – |
| CNC(=O)c1ccc(N2C(=S)N(c3ccc(C#N)c(C(F)(F)F)c3)C(=O)C2(C)C)cc1F [ENZALUTAMIDE] | 24.6 | – | – | – | IC50 at 72 h [4]: 61.4 µM; selectivity ratio [5]: 2.49 |

Reference: ChEMBL document CHEMBL5120780, “Novel indazole skeleton derivatives containing 1,2,3-triazole as potential anti-prostate cancer drugs” (Bioorg Med Chem Lett, 2022)
